Read-outs that look alike come from different tables or passages of the source.
Tests used:
[1] = biological target: T1, [^3 H]-spiroperidol binding (Rattus norvegicus, UniProt P61169); assay: Inhibition of [^3 H]-spiroperidol binding in a receptor assay
T1 construct: from tissue; host or cells: brain striatum (own knowledge from the cited method)
Procedure: (§1) The compounds of Formula I are valuable dopaminergic agents. […] Thus, the compounds of Formula I were tested for their ability to inhibit locomotor activity in mice according to the assay described by J. R. McLean, et al, Pharmacology, Biochemistry and Behavior, Volume 8, pages 97-99 (1978); for their ability to inhibit [^3 H]-spiroperidol binding in a receptor assay described by D. Grigoriadis and P. Seeman, Journal of Neurochemistry, Volume 44, pages 1925-1935 (1985); and for their ability to inhibit dopamine synthesis in rats according to the protocol described by J. R. Walters and R. H. Roth, Naunyn-Schmiedeberg's Archives of Pharmacology, Volume 296, pages 5-14 (1976). The above test methods are incorporated herein by reference. The data in the table show the dopaminergic activity of representative compounds of Formula I.

[2] = tested on: locomotor activity in mice; assay: Inhibition of locomotor activity in mice; assay type: in vivo; settings: Mus musculus, IP
Procedure: as §1

Brain Dopamine Synthesis = assay: Inhibition of dopamine synthesis in rats (reversal of brain dopamine synthesis); assay type: in vivo; settings: Rattus norvegicus, IP
Procedure: as §1

[3] = read-out: Inhibition of [^3 H]Spiroperidol Binding IC50

T1 sequence (P61169 whole entry): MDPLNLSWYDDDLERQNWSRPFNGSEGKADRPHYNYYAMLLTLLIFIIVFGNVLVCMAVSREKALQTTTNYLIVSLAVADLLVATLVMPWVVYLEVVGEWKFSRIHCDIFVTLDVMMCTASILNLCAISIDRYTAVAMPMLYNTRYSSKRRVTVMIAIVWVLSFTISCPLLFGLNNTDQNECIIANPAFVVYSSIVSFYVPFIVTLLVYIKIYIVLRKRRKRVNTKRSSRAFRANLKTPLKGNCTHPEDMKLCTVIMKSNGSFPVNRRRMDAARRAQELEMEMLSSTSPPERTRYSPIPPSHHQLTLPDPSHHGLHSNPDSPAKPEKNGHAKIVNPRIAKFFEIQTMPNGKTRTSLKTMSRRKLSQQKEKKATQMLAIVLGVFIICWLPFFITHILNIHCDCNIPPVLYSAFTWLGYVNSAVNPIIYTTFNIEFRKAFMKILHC

Row | Compound | IC50 [1, 3] [nM] | ED50 [2] [mg/kg] | IC50 [1] [nM] | inhibition in vivo at 10 mg/kg (Brain Dopamine Synthesis) [%]
1 | C1=C(c2c[nH]c3ccccc23)CCN(CCCCc2ccncc2)C1 [Example 3] | 398 | 5 |  | 
2 | C1=C(c2cccs2)CCN(CCCCc2cnc3ccccc3c2)C1 [Example 14] |  | 1.5 |  | 
3 | C1=C(c2cccs2)CCN(CCCCc2ccncc2)C1 [Example 4, 4-[4-[3,6-Dihydro-4-(2-thienyl)-1(2H)-pyridinyl]-butyl]pyridine] |  | 1.2 | 690 | 
4 | C1=C(c2cccs2)CCN(CCCCc2cccnc2)C1 [Example 8, 3-[4-[3,6-Dihydro-4-(2-thienyl)-1(2H)-pyridinyl]-butyl]pyridine] | 1290 | 0.66 |  | 71
5 | O=C(CCCN1CC=C(c2ccccc2)CC1)c1cccnc1 [Example 9, 4-(3,6-Dihydro-4-phenyl-1(2H)-pyridinyl)-1-(3-pyridinyl)-1-butanone] |  | 1.1 |  | 50
6 | C1=C(c2ccccc2)CCN(CCCCc2ccncc2)C1 [Example 1, 4-[4-(3,6-Dihydro-4-phenyl-1(2H)-pyridinyl)butyl]-pyridine] |  | 0.6 | 96 | 87
7 | C1=C(c2ccccn2)CCN(CCCCc2cnc3ccccc3c2)C1 [Example 15, 3-[4-[3,6-Dihydro-4-(2-pyridinyl)-1(2H)-pyridinyl]-butyl]quinoline] |  | 0.14 |  | 
8 | C1=C(c2ccccc2)CCN(CCCCCc2ccncc2)C1 [Example 7, 4-[5-(3,6-Dihydro-4-phenyl-1(2H)-pyridinyl)pentyl]-pyridine] |  | 0.9 |  | 
9 | C1=C(c2ccccc2)CCN(CCCc2ccncc2)C1 [Example 5, 4-[3-(3,6-Dihydro-4-phenyl-1(2H)-pyridinyl)propyl]-pyridine] |  | 0.63 |  | 61
10 | C1=C(c2ccccc2)CCN(CCCCc2cnc3ccccc3c2)C1 [Example 13, 3-[4-(3,6-Dihydro-4-phenyl-1(2H)-pyridinyl)butyl]-quinoline] |  | 0.37 | 46 | 100
11 | C1=C(c2ccccc2)CCN(CCCCc2cccnc2)C1 [Example 12, 3-[4-(3,6-Dihydro-4-phenyl-1(2H)-pyridinyl)butyl]-pyridine] | 170 | 0.28 |  | 80
12 | O=C(CCCN1CC=C(c2ccccc2)CC1)c1ccncc1 [Example 10, 4-(3,6-Dihydro-4-phenyl-1(2H)-pyridinyl)-1-(4-pyridinyl)-1-butanone] | 408 | 1 |  | 57
13 | C1=C(c2ccccn2)CCN(CCCCc2ccncc2)C1 [Example 2, 2-[1,2,3,6-Tetrahydro-1-[4-(4-pyridinyl)butyl]-4-pyridinyl]pyridine] | 448 | 0.7 |  | 88

From US5118691A, “Substituted tetrahydropyridines as central nervous system agents” (Warner-Lambert Co., priority 1991, dated 1992)
